Here are results for one molecule from patent US20120328696A1, “ANTI-PARKINSONIAN COMPOUND ACETYLSALICYLIC ACID MALTOL ESTER” (Hutecs Korea Pharmaceutical Co., Ltd., priority 2008, published 2012).

Each structure is given as a SMILES string.

The test system of assay [1] is dopamine (DA), DOPAC, HVA. As to the kind of experiment: Striatal DA, DOPAC and HVA after MPTP (HPLC). It counts as in vivo, mice. Particulars: AME 25 mg/kg p.o., MPTP 25 mg/kg i.p. x7 days. The procedure:
(§1) AME (25 mg/kg, p.o) administration was started 4 days (twice daily) before the first injection of MPTP and continued for 7 consecutive days (once a day). MPTP was injected (25 mg/kg, i.p) once a day 1 h after AME treatment for consecutive 7 days.
At 3 days after last MPTP injection, mice were killed by cervical dislocation. The brains were removed and placed on an ice-cooled plate. Striatum was dissected and immediately frozen on dry ice and stored at −70° C. until extraction. Brain regions obtained from each animal were weighed, ultrasonicated in 10% perchloric acid containing 10 ng/mg of the internal standard dihydroxybenzilamine, and centrifuged at 20,000×g for 10 min. The levels of DA and its metabolites 3,4-dihydroxyphenylacetic acid (DOPAC) and homovanillic acid (HVA) in brain tissue extracts were determined by HPLC coupled with electrochemical detection as described (Kim et al., 1999). Briefly, striatal tissues were sonicated in 0.2 M perchloric acid (20% W/V) containing the internal standard 3,4-dihydroxybenzylamine (10 mg wet tissue/ml). The homogenate was centrifuged and a 20 μl aliquot of the supernatant was injected into the HPLC equipped with a 3 μm C18 column. The mobile phase was comprised of 26 ml of acetonitrile, 21 ml of tetrahydrofuran and 960 ml of 0.15 M monochloroacetic acid (pH 3.0) containing 50 mg/l of EDTA and 200 mg/l of sodium octyl sulfate. The amount of DA, DOPAC and HVA were determined by comparison of peak height ratio of tissue sample with standards, and were expressed in nanograms per gram of wet weight of tissue.

Assay [2] deals with tyrosine hydroxylase. Briefly: Striatal and nigral TH-like immunoreactivity after MPTP (immunocytochemistry). In kind it is in vivo, mice. As to conditions: AME 25 mg/kg p.o., MPTP 25 mg/kg i.p. x7 days. The procedure:
as §1
Animals were sacrificed at 3 days after final MPTP-treatment. They were anesthetized with 60% urethane and perfused transcardially with 200 ml of 50 mM phosphate buffered saline (PBS), followed by 50 ml of paraformaldehyde in PBS. The brain were fixed at 4° C. for 24 h in the same fixative and then cryoprotected in 30% sucrose. The brains were sectioned on a horizontal sliding microstome into 35 μm transverse free-floating sections. The immunocytochemistry was performed as described previously (Kim et al., 2000a; Kim et al., 2000b). Briefly, prior to incubation with the primary antibodies, sections were preincubated with 0.3% hydrogen peroxide in PBS for 30 min (to block endogenous peroxidase activity), then in PBS containing 0.4% Triton X-100 for 20 min and 1% normal serum for 20 min. […] The quantitative analyses were performed using a computer-based image analysis system (Optimas version 6.2; Neurolucida Program) (Kim et al., 1999).

The conditions of assay [3]: Kim et al., 1997a; cited from earlier work.
The conditions of assay [4]: in vitro; Han et al., 1994; cited from earlier work.
Assay [5] relates to glutathione peroxidase (GPx). As to conditions: Kim et al., 1996; cited from earlier work.
The conditions of assay [6]: Kim et al., 1997b; cited from earlier work.

For `CC(=O)Oc1ccccc1C(=O)Oc1c(C)occc1=O` [AME, 3-(2-methyl-4-pyronyl)-2-acetyloxybenzoate], in assay [1] (p<0.01 vs. MPTP alone), the “effect on MPTP-induced increase in DA turnover rate” value is on record as “significant attenuated”, the “effect on MPTP-induced reduction in striatal HVA” value was “significant attenuated” and the “effect on MPTP-induced reduction in striatal dopamine (DA)” value is “significant attenuated”. The “effect on MPTP-induced reduction in striatal DOPAC” value in assay [1] (p<0.05 vs. MPTP alone) is reported as “significant attenuated”. The “effect on MPTP-induced decrease in striatal TH-IR” value in assay [2] (striatum) was “significantly attenuated these decreases in TH-IR”. Also, in assay [2] (substantia nigra), the “effect on MPTP-induced decrease in substantia nigra TH-IR” value is listed as “significantly attenuated these decreases in TH-IR”. The antithrombotic efficacy entry in assay [3] is “antithrombotic efficacy”. In assay [4], the antioxidative efficacy result is reported as “antioxidative efficacy in vitro”. Further, the “activity of glutathione peroxidase (GPx)” value in assay [5] is “elevating the activity of glutathione peroxidase (GPx)”. Also, the neuroexcitotoxicity entry in assay [6] is listed as “attenuates neuroexcitotoxicity”.
